Results: patent US20080227763A1, “Topical hormonal composition with systemic action” (LABORATOIRE THERAMEX, priority 1998, published 2008)
Read-outs that look alike come from different tables or passages of the source.

Legend:
[1] = test system: breast pain; assay: Clinical example No. 3: breast pain in premenopausal women treated with gel on both breasts; type: in vivo; conditions: 55 women, 4 mg/day as gel on both breasts
Method: In these examples, clinical trials were carried out on women, with the gel containing 0.11% of nomegestrol acetate, whose formulation is given in Table 1 of example I. […], who had been suffering from breast pains for more than 3 months and for at least 7 days per cycle, were treated for an average time of 130 days with 4 mg of nomegestrol acetate applied each day, on the last 15 days of the menstrual cycle, in the form of a gel on both breasts. Efficacy was assessed after 3 months and at the end of treatment using a visual analogue scale for quantifying breast pain.

[2] = Clinical example No. 1: plasma nomegestrol acetate after gel applied daily to both breasts; type: in vivo, women
Method: In these examples, clinical trials were carried out on women, with the gel containing 0.11% of nomegestrol acetate, whose formulation is given in Table 1 of example I.
Twenty-four volunteers, women in good health and in the period of ovarian activity, with average age of 23.5 years, were treated on 15 consecutive days with 4 mg of nomegestrol acetate in a gel applied every day to both breasts.
Repeated blood samples were taken in the hours following the first and last administration, on 9 occasions (6 times before application of the gel and 3 times 3 hours afterwards), between the 2nd and the 14th day of treatment. The plasma of these samples was analysed for nomegestrol acetate by liquid chromatography combined with mass spectrometry.

[3] = Solubility of nomegestrol acetate in solvent mixtures; type: physicochemical; conditions: ethanol/water/propyleneglycol ternary mixture, aqueous with cosolvent or surfactant or cyclodextrin, read-out: Solubilities
Method: The effect of a ternary mixture of solvents, ethanol/water (45:55)/propyleneglycol on the solubility of nomegestrol acetate was determined.
We also examined the possibility of lowering the proportion of alcohol in the solvent, by means of this ternary mixture, while maintaining similar solubility; for this we choose the influence of propyleneglycol on solubility in ethanol/water systems (40:60 and 30:70).

[4] = as above; type: physicochemical
[5] = after the last administration (15 consecutive days)
[6] = first day of treatment, 4 mg nomegestrol acetate in 0.11% gel on both breasts

nomegestrol acetate in the blood (m±sd) [1]: 0.44 ± 0.30 ng/mL | area under the curve from 0 to 48 hours [2, 5]: 18.43±2.091 ng/ml per h | maximum concentration (plasma) [2, 5]: 0.65 ± 0.073 ng/mL | state of equilibrium obtained ([2]; daily application): after the 3rd day of treatment | concentration at 72 h ([2]; female, human, plasma, topical, 4 mg, 72 hours after the last application, read-out: plasma level): 0.19 ± 0.027 ng/mL | area under the curve from 0 to 48 hours [2, 6]: 6.08±0.775 ng/ml per h | maximum concentration (plasma) [2, 6]: 0.25 ± 0.027 ng/mL | solubility ([3]; System I (Ethanol 95° 30%/Demineralized water 70%), 2% propyleneglycol): 600 µg/mL | solubility ([3]; System II (Ethanol 95° 40%/Demineralized water 60%), 2% propyleneglycol): 2600 µg/mL | solubility ([3]; System II (Ethanol 95° 40%/Demineralized water 60%), 6% propyleneglycol): 3000 µg/mL | solubility ([3]; System II (Ethanol 95° 40%/Demineralized water 60%), 12% propyleneglycol): 3400 µg/mL | solubility ([3]; System III (Ethanol 95° 45%/Demineralized water 55%), 8% propyleneglycol): 7700 µg/mL | solubility ([3]; System III (Ethanol 95° 45%/Demineralized water 55%), 12% propyleneglycol): 7700 µg/mL | solubility ([4]; 95° ethanol/water binary mixture, aqueous with cosolvent or surfactant or cyclodextrin, 95° ethanol/water binary mixture, 10% 95° ethanol, read-out: Solubility of nomegestrol acetate): 70 µg/mL | solubility ([4]; 95° ethanol/water binary mixture, aqueous with cosolvent or surfactant or cyclodextrin, 95° ethanol/water binary mixture, 20% 95° ethanol, read-out: Solubility of nomegestrol acetate): 113 µg/mL | solubility ([4]; 95° ethanol/water binary mixture, aqueous with cosolvent or surfactant or cyclodextrin, 95° ethanol/water binary mixture, 30% 95° ethanol, read-out: Solubility of nomegestrol acetate): 683 µg/mL | solubility ([4]; 95° ethanol/water binary mixture, aqueous with cosolvent or surfactant or cyclodextrin, 95° ethanol/water binary mixture, 40% 95° ethanol, read-out: Solubility of nomegestrol acetate): 2820 µg/mL | solubility ([4]; 95° ethanol/water binary mixture, aqueous with cosolvent or surfactant or cyclodextrin, 95° ethanol/water binary mixture, 50% 95° ethanol, read-out: Solubility of nomegestrol acetate): 7330 µg/mL | solubility ([4]; 95° ethanol/water binary mixture, aqueous with cosolvent or surfactant or cyclodextrin, 95° ethanol/water binary mixture, 60% 95° ethanol, read-out: Solubility of nomegestrol acetate): 17800 µg/mL | solubility ([4]; 95° ethanol/water binary mixture, aqueous with cosolvent or surfactant or cyclodextrin, 95° ethanol/water binary mixture, 70% 95° ethanol, read-out: Solubility of nomegestrol acetate): 24800 µg/mL | solubility ([4]; 95° ethanol/water binary mixture, aqueous with cosolvent or surfactant or cyclodextrin, 95° ethanol/water binary mixture, 80% 95° ethanol, read-out: Solubility of nomegestrol acetate): 29500 µg/mL | solubility ([4]; 95° ethanol/water binary mixture, aqueous with cosolvent or surfactant or cyclodextrin, 95° ethanol/water binary mixture, 90% 95° ethanol, read-out: Solubility of nomegestrol acetate): 26600 µg/mL | solubility ([4]; 95° ethanol/water binary mixture, organic solvent or mixture, 95° ethanol/water binary mixture, 100% 95° ethanol, read-out: Solubility of nomegestrol acetate): 32800 µg/mL | solubility ([4]; 95° ethanol/water binary mixture, water, 95° ethanol/water binary mixture, 0% 95° ethanol, read-out: Solubility of nomegestrol acetate): 56 µg/mL | solubility ([4]; aqueous-alcoholic solvent mixture, aqueous with cosolvent or surfactant or cyclodextrin, aqueous-alcoholic mixture, 0% propyleneglycol, 3% Solketal, read-out: Solubility of nomegestrol acetate): 6700 µg/mL | solubility ([4]; aqueous-alcoholic solvent mixture, aqueous with cosolvent or surfactant or cyclodextrin, aqueous-alcoholic mixture, 0% propyleneglycol, 3% Vitamin E TPGS, read-out: Solubility of nomegestrol acetate): 7650 µg/mL | solubility ([4]; aqueous-alcoholic solvent mixture, aqueous with cosolvent or surfactant or cyclodextrin, aqueous-alcoholic mixture, 0% propyleneglycol, 8% Solketal, read-out: Solubility of nomegestrol acetate): 8600 µg/mL | solubility ([4]; aqueous-alcoholic solvent mixture, aqueous with cosolvent or surfactant or cyclodextrin, aqueous-alcoholic mixture, 0% propyleneglycol, 8% Transcutol®, read-out: Solubility of nomegestrol acetate): 10700 µg/mL | solubility ([4]; aqueous-alcoholic solvent mixture, aqueous with cosolvent or surfactant or cyclodextrin, aqueous-alcoholic mixture, 0% propyleneglycol, 8% Vitamin E TPGS, read-out: Solubility of nomegestrol acetate): 11100 µg/mL | solubility ([4]; aqueous-alcoholic solvent mixture, aqueous with cosolvent or surfactant or cyclodextrin, aqueous-alcoholic mixture, 3% propyleneglycol, 8% Transcutol®, read-out: Solubility of nomegestrol acetate): 10600 µg/mL | solubility ([4]; aqueous-alcoholic solvent mixture, aqueous with cosolvent or surfactant or cyclodextrin, aqueous-alcoholic mixture, 8% propyleneglycol, 0% Solketal, read-out: Solubility of nomegestrol acetate): 7700 µg/mL | solubility ([4]; aqueous-alcoholic solvent mixture, aqueous with cosolvent or surfactant or cyclodextrin, aqueous-alcoholic mixture, 8% propyleneglycol, 0% Transcutol®, read-out: Solubility of nomegestrol acetate): 7700 µg/mL | solubility ([4]; aqueous-alcoholic solvent mixture, aqueous with cosolvent or surfactant or cyclodextrin, aqueous-alcoholic mixture, 8% propyleneglycol, 0% Vitamin E TPGS, read-out: Solubility of nomegestrol acetate): 7700 µg/mL | solubility ([4]; aqueous-alcoholic solvent mixture, aqueous with cosolvent or surfactant or cyclodextrin, aqueous-alcoholic mixture, 8% propyleneglycol, 3% Solketal, read-out: Solubility of nomegestrol acetate): 10700 µg/mL | solubility ([4]; aqueous-alcoholic solvent mixture, aqueous with cosolvent or surfactant or cyclodextrin, aqueous-alcoholic mixture, 8% propyleneglycol, 3% Transcutol®, read-out: Solubility of nomegestrol acetate): 7950 µg/mL | solubility ([4]; aqueous-alcoholic solvent mixture, aqueous with cosolvent or surfactant or cyclodextrin, aqueous-alcoholic mixture, 8% propyleneglycol, 3% Vitamin E TPGS, read-out: Solubility of nomegestrol acetate): 12500 µg/mL | solubility ([4]; ethanol/water/Labrasol solvent mixture with propyleneglycol, aqueous with cosolvent or surfactant or cyclodextrin, System Ethanol 95° 45%/Water 50%/Labrasol® 5%, 10% propyleneglycol, read-out: Solubility of l'nomegestrol acetate): 9500 µg/mL | solubility ([4]; ethanol/water/Labrasol solvent mixture with propyleneglycol, aqueous with cosolvent or surfactant or cyclodextrin, System Ethanol 95° 45%/Water 50%/Labrasol® 5%, 15% propyleneglycol, read-out: Solubility of l'nomegestrol acetate): 10200 µg/mL | solubility ([4]; ethanol/water/Labrasol solvent mixture, aqueous with cosolvent or surfactant or cyclodextrin, System Ethanol 95° 45%/Water 50%/Labrasol® 5%, 0% propyleneglycol, read-out: Solubility of l'nomegestrol acetate): 9400 µg/mL | solubility ([4]; ethanol/water/propyleneglycol solvent mixture, aqueous with cosolvent or surfactant or cyclodextrin, System III (Ethanol 95° 45%/Demineralized water 55%), 2% propyleneglycol, read-out: Solubilities): 5100 µg/mL | solubility ([4]; ethanol/water/propyleneglycol ternary mixture, aqueous with cosolvent or surfactant or cyclodextrin, System I (Ethanol 95° 30%/Demineralized water 70%), 0% propyleneglycol, read-out: Solubilities): 600 µg/mL | solubility ([4]; ethanol/water/propyleneglycol ternary mixture, aqueous with cosolvent or surfactant or cyclodextrin, System I (Ethanol 95° 30%/Demineralized water 70%), 4% propyleneglycol, read-out: Solubilities): 500 µg/mL | solubility ([4]; ethanol/water/propyleneglycol ternary mixture, aqueous with cosolvent or surfactant or cyclodextrin, System I (Ethanol 95° 30%/Demineralized water 70%), 6% propyleneglycol, read-out: Solubilities): 700 µg/mL | solubility ([4]; ethanol/water/propyleneglycol ternary mixture, aqueous with cosolvent or surfactant or cyclodextrin, System I (Ethanol 95° 30%/Demineralized water 70%), 8% propyleneglycol, read-out: Solubilities): 1000 µg/mL | solubility ([4]; ethanol/water/propyleneglycol ternary mixture, aqueous with cosolvent or surfactant or cyclodextrin, System I (Ethanol 95° 30%/Demineralized water 70%), 12% propyleneglycol, read-out: Solubilities): 1100 µg/mL | solubility ([4]; ethanol/water/propyleneglycol ternary mixture, aqueous with cosolvent or surfactant or cyclodextrin, System I (Ethanol 95° 30%/Demineralized water 70%), 20% propyleneglycol, read-out: Solubilities): 1500 µg/mL | solubility ([4]; ethanol/water/propyleneglycol ternary mixture, aqueous with cosolvent or surfactant or cyclodextrin, System II (Ethanol 95° 40%/Demineralized water 60%), 0% propyleneglycol, read-out: Solubilities): 2900 µg/mL | solubility ([4]; ethanol/water/propyleneglycol ternary mixture, aqueous with cosolvent or surfactant or cyclodextrin, System II (Ethanol 95° 40%/Demineralized water 60%), 4% propyleneglycol, read-out: Solubilities): 2600 µg/mL | solubility ([4]; ethanol/water/propyleneglycol ternary mixture, aqueous with cosolvent or surfactant or cyclodextrin, System II (Ethanol 95° 40%/Demineralized water 60%), 8% propyleneglycol, read-out: Solubilities): 3200 µg/mL | solubility ([4]; ethanol/water/propyleneglycol ternary mixture, aqueous with cosolvent or surfactant or cyclodextrin, System II (Ethanol 95° 40%/Demineralized water 60%), 20% propyleneglycol, read-out: Solubilities): 3900 µg/mL | solubility ([4]; ethanol/water/propyleneglycol ternary mixture, aqueous with cosolvent or surfactant or cyclodextrin, System III (Ethanol 95° 45%/Demineralized water 55%), 0% propyleneglycol, read-out: Solubilities): 5100 µg/mL | solubility ([4]; ethanol/water/propyleneglycol ternary mixture, aqueous with cosolvent or surfactant or cyclodextrin, System III (Ethanol 95° 45%/Demineralized water 55%), 4% propyleneglycol, read-out: Solubilities): 5100 µg/mL | solubility ([4]; ethanol/water/propyleneglycol ternary mixture, aqueous with cosolvent or surfactant or cyclodextrin, System III (Ethanol 95° 45%/Demineralized water 55%), 6% propyleneglycol, read-out: Solubilities): 5100 µg/mL | solubility ([4]; ethanol/water/propyleneglycol ternary mixture, aqueous with cosolvent or surfactant or cyclodextrin, System III (Ethanol 95° 45%/Demineralized water 55%), 20% propyleneglycol, read-out: Solubilities): 7900 µg/mL
Compound: CC(=O)O[C@]1(C(C)=O)CC[C@H]2[C@@H]3C=C(C)C4=CC(=O)CC[C@@H]4[C@H]3CC[C@@]21C [nomegestrol acetate]
